From US20080045537A1, “Chemical Compounds” (priority 2004, published 2008)
pIC50: −log10 of the molar value.

The compounds below were run on HIV-1 IIIB (T-tropic, CXCR4 utilizing) (assay: HOS HIV-1 infectivity assay). Conditions: Human immunodeficiency virus 1, IIIB; as determined by the infectivity assay; strain not stated in Table 2; read-out: Activity Level.
Format: cell-based
Method in brief: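 HOS hCXCR4/hCCR5/hCD4/pHIV-LTR-luc cells, DMEM 2% FCS, 24 h preculture; cpd 1 h pre-virus; HIV-1 (PBL-grown) ~2 million RLU/well; 96 h, 37 °C. Readout: Steady-Glo luciferase (infected), CellTiter-Glo (no virus).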

pIC50	SMILES
5.00 to 6.30	CN(Cc1nc2c(C(=O)NCCc3cccnc3)cccc2[nH]1)C1CCCc2cccnc21 (stereo not shown) [Example 69, 2-{[Methyl(5,6,7,8-tetrahydro-8-quinolinyl)amino]methyl}-N-[2-(3-pyridinyl)ethyl]-1H-benzimidazole-4-carboxamide]
6.30 to 7.00	CN1CCN(c2cccc3c2nc(CN(C)C2CCCc4cccnc42)n3C)CC1 (stereo not shown) [Example 152, N-Methyl-N-{[1-methyl-4-(4-methyl-1-piperazinyl)-1H-benzimidazol-2-yl]methyl}-5,6,7,8-tetrahydro-8-quinolinamine]
> 7.00	CN(Cc1nc2cc(C(N)=O)ccc2[nH]1)C1CCCc2cccnc21 (stereo not shown) [Example 37, 2-{[Methyl(5,6,7,8-tetrahydroquinolin-8-yl)amino]methyl}-1H-benzimidazole-5-carboxamide]
> 7.00	CN1CCCN(C(=O)c2cccc3[nH]c(CN(C)C4CCCc5cccnc54)nc23)CC1 (stereo not shown) [Example 86, N-Methyl-N-({4-[(4-methylhexahydro-1H-1,4-diazepin-1-yl)carbonyl]-1H-benzimidazol-2-yl}methyl)-5,6,7,8-tetrahydro-8-quinolinamine]
5.00 to 6.30	CN(Cc1nc2cc(C(=O)NCC3CCCCC3)ccc2[nH]1)C1CCCc2cccnc21 (stereo not shown) [Example 41, N-(Cyclohexylmethyl)-2-{[methyl(5,6,7,8-tetrahydro-8-quinolinyl)amino]methyl}-1H-benzimidazole-5-carboxamide]
> 7.00	CCN(Cc1nc2cccc(N3CCN(C)CC3)c2[nH]1)[C@H]1CCCc2cccnc21 [Example 135, (8S)—N-Ethyl-N-{[4-(4-methyl-1-piperazinyl)-1H-benzimidazol-2-yl]methyl}-5,6,7,8-tetrahydro-8-quinolinamine]
> 7.00	CN(Cc1nc2c(CCCN3CCCCC3)cccc2[nH]1)C1CCCc2cccnc21 (stereo not shown) [Example 96, N-methyl-N-({4-[3-(1-piperidinyl)propyl]-1H-benzimidazol-2-yl}methyl)-5,6,7,8-tetrahydro-8-quinolinamine]
> 7.00	CN(C)CCNC(=O)c1ccc2[nH]c(CN(C)C3CCCc4cccnc43)nc2c1 (stereo not shown) [Example 52, N-[2-(Dimethylamino)ethyl]-2-{[methyl(5,6,7,8-tetrahydro-8-quinolinyl)amino]methyl}-1H-benzimidazole-5-carboxamide]
> 7.00	CN1CCN(c2cccc3nc(CN(C)[C@H]4CCCc5cccnc54)n(C)c23)CC1 [Example 160, (8S)—N-Methyl-N-{[1-methyl-7-(4-methyl-1-piperazinyl)-1H-benzimidazol-2-yl]methyl}-5,6,7,8-tetrahydro-8-quinolinamine]
5.00 to 6.30	CCN(Cc1nc2cc(C(=O)N(C)CCN(C)C)ccc2[nH]1)C1CCCc2cccnc21 (stereo not shown) [Example 49, N-[2-(Dimethylamino)ethyl]-2-{[ethyl(5,6,7,8-tetrahydro-8-quinolinyl)amino]methyl}-N-methyl-1H-benzimidazole-5-carboxamide]
> 7.00	CCn1c(CN(Cc2ccccc2)[C@H]2CCCc3cccnc32)nc2cccc(N3CCN(C)CC3)c21 [Example 165, (8S)—N-{[1-Ethyl-7-(4-methyl-1-piperazinyl)-1H-benzimidazol-2-yl]methyl}-N-(Phenylmethyl)-5,6,7,8-tetrahydro-8-quinolinamine]
6.30 to 7.00	CN(Cc1nc2cccc(C(=O)NCCCCCN)c2[nH]1)C1CCCc2cccnc21 (stereo not shown) [Example 61, N-(5-Aminopentyl)-2-{[methyl(5,6,7,8-tetrahydro-8-quinolinyl)amino]methyl}-1H-benzimidazole-4-carboxamide]
> 7.00	CN1CCN(c2cccc3nc(CN(CCO)[C@H]4CCCc5cccnc54)n(C)c23)CC1 [Example 180, 2-{{[1-Methyl-7-(4-methyl-1-piperazinyl)-1H-benzimidazol-2-yl]methyl}[(8S)-5,6,7,8-tetrahydro-8-quinolinyl]amino}ethanol]
> 7.00	Cn1c(CN(CCO)[C@H]2CCCc3cccnc32)nc2cccc(N3CCNCC3)c21 [Example 178, 2-{{[1-Methyl-7-(1-piperazinyl)-1H-benzimidazol-2-yl]methyl}[(8S)-5,6,7,8-tetrahydro-8-quinolinyl]amino}ethanol]
6.30 to 7.00	CN(C)CCCNc1cccc2[nH]c(CN(C)C3CCCc4cccnc43)nc12 (stereo not shown) [Example 106, [3-(Dimethylamino)propyl](2-{[methyl(5,6,7,8-tetrahydro-8-quinolinyl)amino]methyl}-1H-benzimidazol-4-yl)amine]
> 7.00	CNCCNC(=O)c1ccc2[nH]c(CN(C)C3CCCc4cccnc43)nc2c1 (stereo not shown) [Example 53, N-[2-(Methylamino)ethyl]-2-{[methyl(5,6,7,8-tetrahydro-8-quinolinyl)amino]methyl}-1H-benzimidazole-5-carboxamide]
5.00 to 6.30	CN(Cc1nc2ccc(C(=O)N3CCC(CCN4CCCC4)CC3)cc2[nH]1)C1CCCc2cccnc21 (stereo not shown) [Example 42, N-Methyl-N-{[5-({4-[2-(1-pyrrolidinyl)ethyl]-1-piperidinyl}carbonyl)-1H-benzimidazol-2-yl]methyl}-5,6,7,8-tetrahydro-8-quinolinamine]
> 7.00	CN1CCN(c2cccc3nc(CN(C)[C@H]4CCCc5cccnc54)[nH]c23)CC1 [Example 133B, (8S)—N-Methyl-N-{[4-(4-methyl-1-piperazinyl)-1H-benzimidazol-2-yl]methyl}-5,6,7,8-tetrahydro-8-quinolinamine]
> 7.00	CN1CCN(c2cccc3nc(CN(C)C4CCCc5cccnc54)n(C)c23)CC1 (stereo not shown) [Example 153, N-Methyl-N-{[1-methyl-7-(4-methyl-1-piperazinyl)-1H-benzimidazol-2-yl]methyl}-5,6,7,8-tetrahydro-8-quinolinamine]
> 7.00	CN(Cc1nc2c(N3CCN(C(=O)CN)CC3)cccc2[nH]1)C1CCCc2cccnc21 (stereo not shown) [Example 116, N-({4-[4-(Aminoacetyl)-1-piperazinyl]-1H-benzimidazol-2-yl}methyl)-N-methyl-5,6,7,8-tetrahydro-8-quinolinamine]
> 7.00	CN1CCN(c2cccc3[nH]c([C@H](COCc4ccccc4)N(C)C4CCCc5cccnc54)nc23)CC1 (stereo partly drawn) [Example 176, N-Methyl-N-{(1R)-1-[4-(4-methyl-1-piperazinyl)-1H-benzimidazol-2-yl]-2-[(phenylmethyl)oxy]ethyl}-5,6,7,8-tetrahydro-8-quinolinamine]
6.30 to 7.00	CN(Cc1nc2c(NC(=O)C(C)(C)N)cccc2[nH]1)C1CCCc2cccnc21 (stereo not shown) [Example 105, 2-Methyl-N-1-(2-{[methyl(5,6,7,8-tetrahydro-8-quinolinyl)amino]methyl}-1H-benzimidazol-4-yl)alaninamide]
> 7.00	CN(Cc1nc2c(C(=O)NCCCN3CCOCC3)cccc2[nH]1)C1CCCc2cccnc21 (stereo not shown) [Example 74, 2-{[Methyl(5,6,7,8-tetrahydro-8-quinolinyl)amino]methyl}-N-[3-(4-morpholinyl)propyl]-1H-benzimidazole-4-carboxamide]
> 7.00	CN1CCN(c2cccc3nc(C(C)(C)N(C)C4CCCc5cccnc54)[nH]c23)CC1 (stereo not shown) [Example 115, N-Methyl-N-{1-methyl-1-[4-(4-methyl-1-piperazinyl)-1H-benzimidazol-2-yl]ethyl}-5,6,7,8-tetrahydro-8-quinolinamine]
> 7.00	CN(CCc1c[nH]cn1)C(=O)c1cccc2[nH]c(CN(C)C3CCCc4cccnc43)nc12 (stereo not shown) [Example 90, N-[2-(1H-imidazol-4-yl)ethyl]-N-methyl-2-{[methyl(5,6,7,8-tetrahydro-8-quinolinyl)amino]methyl}-1H-benzimidazole-4-carboxamide]
5.00 to 6.30	CN(Cc1nc2cc(C(=O)N3CCNCC3)ccc2[nH]1)C1CCCc2cccnc21 (stereo not shown) [Example 57, N-Methyl-N-{[5-(1-piperazinylcarbonyl)-1H-benzimidazol-2-yl]methyl}-5,6,7,8-tetrahydro-8-quinolinamine]
> 7.00	CN1CCN(c2cccc3nc(CN(CC4CC4)[C@H]4CCCc5cccnc54)[nH]c23)CC1 [Example 140, (8S)—N-(Cyclopropylmethyl)-N-{[4-(4-methyl-1-piperazinyl)-1H-benzimidazol-2-yl]methyl}-5,6,7,8-tetrahydro-8-quinolinamine]
> 7.00	CCN(Cc1nc2cccc(N3CCN4CCC[C@@H]4C3)c2[nH]1)[C@H]1CCCc2cccnc21 [Example 142, (8S)—N-Ethyl-N-({4-[(8aR)-hexahydropyrrolo[1,2-a]pyrazin-2(1H)-yl]-1H-benzimidazol-2-yl}methyl)-5,6,7,8-tetrahydro-8-quinolinamine]
